Results on seven compounds are retold here after US11867690B2, “Identification of functional cell states” ([…] AG, priority 2014, dated 2024).

As a reminder, the inhibition is the percentage by which the read-out fell short of the control. Read a high inhibition as a response far below the control.

“Also recorded” adds a separate entry of the source.

In test [1] the test system is HL-60 cells. The test is described as follows: Cell physiology assay plate 1a: flow cytometry with MBBR, CALCEIN AM, MITOSOX RED and SYTOXRED
It is filed as cell-based, human. Here is the method: (§1) Cells were deposited into 384 well plates (1×10^6 cells in 40 μl tissue culture media), and serial dilutions of test compounds (or vehicle in the case of controls) were deposited in individual wells using standard robotic techniques. Compound deposition and dilution was performed by BIOMEK FX (5 or 10-step dilutions from 100 to 0.005 μM). Dilutions were prepared from stock solutions of compounds dissolved initially in 100% DMSO. Final volume deposited into each well is 2 μl of each compound dilution (compounds are in a final concentration of 1% DMSO). After incubation in a tissue culture incubator (5% CO2 at 37° C.) for varying periods of time (typically 4 hours), plates were centrifuged at room temperature, followed by removal of 20 μl supernatant fluid. After vibration of the plate to re-suspend cells, a dye mix (Plate 1a Monobromobimane, CALCEIN AM, MITOSOX™ and SYTOSOX™ RED; plate 1b VYBRANVIOLET™ Live Cell Cycle dye, JC-9, and SYTOSOX™ RED) was added in a total volume of 20 μl, followed by an additional mixing step.
Each well of the 384-well plate was sampled with a 6 second sip time, plus 1 second delay between wells, resulting in a total read time for each plate of approximately 45 minutes. Data was acquired using a CYAN™ flow cytometer, with the […]™ software used to compile files for each well on an individual plate using an FCS format. Data for each plate was subsequently analyzed for several quality assurance parameters (total number of events per well, numbers of events associated with morphologically normal events, number of dead cells), as described below.
Flow cytometric analyses of intrinsic cell properties (forward light scatter and light scattered orthogonal to the laser beam) and fluorescence signals derived from the dyes listed in Table 1 was carried out for plates 1a and 1b.
Chem. Soc. […] Technol. […] MITOSOX™ RED is a compound that can diffuse into viable cells and reacts with superoxide anion species, particularly products of mitochondrial respiration; conditions such as cell stress can cause mitochondria to respond (sometimes rapidly) by increasing respiration and/or release superoxide anions; and • (3) SYTOXRED™ to measure cell viability (loss of nuclear membrane integrity). SYTOXRED™ is a high-affinity DNA stain that can only pass through the cytoplasmic and nuclear membranes of cells which have lost the integrity of both membranes; thus, brightly fluorescent cells are dead.

Test [2] has as its system phosphorylation of the downstream STAT5 target in K562 cells. The test can be described thus: Phosphorylation of STAT5 in K562 cells by flow cytometry. In kind it is cell-based. As to conditions: Homo sapiens, 0.5 h, 30 min. As to the method:
Cells were deposited onto dilutions of test compounds deposited into individual wells of […], as indicated above. Following incubation in a tissue culture incubator (5% CO2 at 37° C.) for 30 minutes to 12 hr, the cells were pelleted by centrifugation, the supernatant was removed, the cells were re-suspended by vibration in the remaining supernatant fluid, and 50 μl of fixative (1.2% formaldehyde in PBS) was added. Following 15 min incubation (at 37° C.), cells were pelleted by centrifugation, supernatant removed, and the cells were suspended by vibrating the plate.
Cell were permeabilized by adding 150 μl cold absolute methanol, followed by incubation at 4° C. for 15 minutes. Permeabilized cells were centrifuged, supernatant removed, and cells were washed three times with cold (4° C.) PBS containing 4% FBS. Following the final wash, cells were centrifuged, the supernatant was removed, and cells were re-suspended in an antibody cocktail (total volume 20 μl) appropriate for that experiment.
On the technique in general: Flow cytometry measures light scatter and fluorescence of single cells or particles in a stream.

Test [3] concerns HL-60 cells. The test is described as follows: Plate 1b: mitochondrial membrane potential (MMP) measured with JC-9 by flow cytometry. It is filed as cell-based, human. As to the method: as §1, with “step. Plates were returned to the tissue culture incubator (5% CO2 at 37° C.) for an additional 15 min (plate 1a) or 30 min (plate 1b), followed by immediate analysis using the […]-CYAN™.” for “step.”
Measurements identical to those described in Example 2 above were made using a second combination of dyes: • (1) VYBRANVIOLET™ to measure cell cycle in live cells; • (2) JC-9 to measure mitochondrial membrane potential (MMP); and • (3) SYTOXRED™ (as described herein above).
The measurement of mitochondrial membrane potential (MMP) with JC-9 was performed with two independent fluorescence channels (green and red fluorescence signals), as changes in MMP cause aggregation of the dye, with different fluorescence emission by the aggregated versus non-aggregated dye molecules. […] At higher valinomycin concentrations, red fluorescence […]. A unique aspect of this assay is that it correlates changes in MMP (JC-9) and cell death (SYTOXRED™) with the phases of the cell cycle (G1, S, and G2M).
An identical study to the one described before was conducted with exposing HL60 cells exposed to 1.23 μM idarubicin, an analog of daunorubicin which inserts into DNA and prevents it from unwinding during DNA replication and arrests cell division.

The subject of test [4] is human peripheral blood monocytes. The test can be described thus: Kinetics of signal transduction responses to LPS in whole blood monocytes by flow cytometry. In kind it is cell-based. The conditions noted are these: LPS alone. An excerpt: Herein, specific dyes that monitor cell membrane permeability (marker for cell death), nuclear membrane permeability (marker for cell death), signal transduction pathways implicated in DNA damage (phospho-Histone H2A, phospho-ATM/ATR, phospho-p53), signal transduction pathways implicated in inflammation (e.g., NF-kB), signal transduction via the MAP kinase pathways (ERK, SAP/JNK, p38), signal transduction via the PI3 Kinase pathway (Akt, GSK3B, RS6K, S6), early apoptotic pathways (e.g., annexin V), mid apoptotic pathways (e.g., cleaved caspase), late apoptotic pathways (e.g., PARP/DNA fragmentation), etc. may be employed.

The mark [5] stands for this setting: 33 μM, cells with normal morphology.
Setting [6] is: 33 μM, population with altered morphology.

As to `N#CC(C#N)=NNc1ccc(OC(F)(F)F)cc1` [FCCP, carbonyl cyanide-4-(trifluoromethoxy)phenylhydrazone], in test [1] (setting [5]), the “CALCEIN AM” value is given as “normal”; the GSH entry is recorded as “normal”; the ROS result is “increased ROS”; the “nuclear and cytoplasmic membranes (SYTOX Red uptake)” value is “intact nuclear and cytoplasmic membranes”. Further, in test [1] (setting [6]), the CALCEIN entry is “increased CALCEIN”, the GSH result is given as “reduced GSH”, the ROS result is reported as “increased ROS” and the SYTOXRED result is “higher SYTOXRED™”.

With `Cc1ccc(NC(=O)c2ccc(CN3CCN(C)CC3)cc2)cc1Nc1nccc(-c2cccnc2)n1` [GLEEVEC, imatinib], in test [2], the inhibition at 2 µM is greater than 95%.

Consider `CNCCC(Oc1ccc(C(F)(F)F)cc1)c1ccccc1` (centres unmarked) [fluoxetine], for which, in test [1] (100 μM), the “CALCEIN AM” value is “reduced CALCEIN AM”, the “GSH (MBBR)” value is “reduced GSH”, the “ROS (MITOSOX RED)” value was “increased ROS” and the “cell death in relation to cell cycle (SYTOXRED histogram)” value was “cells are dying throughout the cell cycle”.

`CC(=O)[C@]1(O)Cc2c(O)c3c(c(O)c2[C@@H](O[C@H]2C[C@H](N)[C@H](O)[C@H](C)O2)C1)C(=O)c1ccccc1C3=O` [idarubicin]: the “JC-9 red fluorescence versus untreated control cells” value in test [3] (1.23 μM) is recorded as “significantly higher”. In test [3] (FIG. 6B), the JC-9 green fluorescence result is “does not increase”.

`CO/C(=C/C(N)=O)[C@H](C)[C@H](/C=C/c1csc(-c2csc([C@@H](C)/C=C/C=C/C(C)C)n2)n1)OC` [myxothiazol]: in test [1] (100 μM), the “CALCEIN AM” value is recorded as “decrease”; the “GSH (MBBR)” value is “decrease”; the “ROS (MITOSOX RED)” value is “increase”; the “SYTOXRED (cytoplasmic and nuclear membrane permeability, viability)” value was “increase”. In addition, the “cell morphology (light scatter)” value in test [1] (100 μM) was “significant change in cell morphology”. Further, the “SYTOXRED (cytoplasmic and nuclear membrane permeability, viability)” value in test [1] (100 μM, listed as myxothiozol) is “perturbs cytoplasmic and nuclear membrane permeability (viability)”.

Turning to `CC(C)[C@@H]1NC(=O)[C@H](C)OC(=O)[C@@H](C(C)C)NC(=O)[C@@H](C(C)C)OC(=O)[C@H](C(C)C)NC(=O)[C@H](C)OC(=O)[C@@H](C(C)C)NC(=O)[C@@H](C(C)C)OC(=O)[C@H](C(C)C)NC(=O)[C@H](C)OC(=O)[C@@H](C(C)C)NC(=O)[C@@H](C(C)C)OC1=O` [valinomycin], in test [3] (FIG. 6A legend), the “concentration at peak of JC-9 red and green fluorescence” value was roughly 0.045 µM. For the same compound, the “concentration at peak JC-9 green fluorescence” value in test [3] (FIG. 6A, Example 4A) was roughly 0.05 µM. Besides, the “JC-9 red and green fluorescence” value in test [3] (with increasing concentration, FIG. 6A) was “initially increase; also recorded: significantly higher”.

With lipopolysaccharide [LPS], in test [4], the “ERK, Akt and S6 (phosphorylation)” value is recorded as “activated; also recorded: activates (phosphorylates)”; the “Iκ kinase (proteasomal degradation of IκBα)” value is recorded as “activates”.
